# Legend:
# [1] = test system: monodeiodinase type 2 mRNA; assay: Northern blot, monodeiodinase type 2 mRNA in pituitary; format: in vivo, rat; details: FIG. 5b, compared with T4, p=0.001
# Method: Seventy-nine male SIVZ rats were purchased from the breeder (Institut für Labortierkunde des Universität Zürich, Zürich, Switzerland). They were rendered hypothyroid by a single injection of [^131I]Na (100 μCi/rat) and before and throughout the experiment 0.02% 2-mercapto-1-methylimidazol (MMI) was added to drinking water. In order to have an euthyroid control group of similar weight and identical age, 10 rats received only MMI in the drinking water and 2 weeks before implanting the minipumps, MMI was withdrawn. Osmotic minipumps (secretion rate 0.25 μl/hour, duration 14 days) were implanted intraperitoneally (i.p.) 2 months after the injection of [^131I]Na. The minipumps were filled with T4 or Tetrac dissolved in 0.05 N NaOH, 2% BSA and 100,000 cpm [^125I]T4 or [^125I]Tetrac as control of their secretion rates. The infusion lasted 13 days. 0, 1.5, 4.5, 13.5 and 40.5 nmol Tetrac/day/100 g or 0.5, 1.5, 4.5 and 13.5 nmol T4/day/100 g bodyweight (BW) (n=4/dose) were infused. An euthyroid control group was included. The animals were weighed every 2 days. […]
# (§1) The amount of labeled mRNA was quantified by scanning laser densitometry (Phosphorimager, Molecular Dynamics; Sunnyvale, USA). Variations in RNA loading and membrane transfer were corrected by densitometric quantification of a negative photograph of 28S and 18S ribosomal RNA bands from ethidium bromide stained RNA gels. […]
# [2] = test system: GH mRNA; assay: Northern blot, growth hormone mRNA in pituitary; format: in vivo, rat
# Method: (§2) Seventy-nine male SIVZ rats were purchased from the breeder (Institut für Labortierkunde des Universität Zürich, Zürich, Switzerland). They were rendered hypothyroid by a single injection of [^131I]Na (100 μCi/rat) and before and throughout the experiment 0.02% 2-mercapto-1-methylimidazol (MMI) was added to drinking water. In order to have an euthyroid control group of similar weight and identical age, 10 rats received only MMI in the drinking water and 2 weeks before implanting the minipumps, MMI was withdrawn. Osmotic minipumps (secretion rate 0.25 μl/hour, duration 14 days) were implanted intraperitoneally (i.p.) 2 months after the injection of [^131I]Na. The minipumps were filled with T4 or Tetrac dissolved in 0.05 N NaOH, 2% BSA and 100,000 cpm [^125I]T4 or [^125I]Tetrac as control of their secretion rates. The infusion lasted 13 days. 0, 1.5, 4.5, 13.5 and 40.5 nmol Tetrac/day/100 g or 0.5, 1.5, 4.5 and 13.5 nmol T4/day/100 g bodyweight (BW) (n=4/dose) were infused. An euthyroid control group was included. The animals were weighed every 2 days. Rats were sacrificed by decapitation and blood was collected and stored at […] until use. Tissues (liver, heart, brown adipose tissue, cerebral cortex and pituitary) were removed rapidly, frozen in liquid nitrogen and stored at […] until use.
# (§3) Total RNA extraction and Northern Blot hybridization Total RNA was extracted with the method of Chomczynski and Sacchi (Chomczynski, P. and Sacchi, N. Anal. Biochem. (1987) 162: 156-159). […]
# as §1
# [3] = test system: monodeiodinase type 1 mRNA; assay: Northern blot, hepatic monodeiodinase type 1 mRNA; format: in vivo, rat; details: Liver
# Method: as §2, §3, §1
# [4] = test system: Cynomologus monkeys
# Method: Preparation of Tetrac for injection. Tetrac from Rhône-Poulenc and Henning Laboratory were compared. Tetrac powder was dissolved in sterile 0.1 N NaOH at 2 mg/ml. This solution was made before the beginning of each treatment period and stored at 4° C. in polypropylene tubes, protected from light. Each solution for injection was prepared daily after dilution in the vehicle (0.9% NaCl) containing 5% monkey serum (v/v), and was stored at room temperature and protected from light, according to the storage conditions of the test substance.
# Animals. One male and one female purpose bred Cynomologus monkeys Macaca fascicularis were supplied by Centre de Recherches Primatologiques, Port Louis, Mauritius. […] The animals were individually housed in stainless steel cages and a metallic tray was placed under each cage in order to collect urine. The animals were fed daily with approximately 200 grams each of U.A.R. 107 C pelleted diet (batch Nos. 61106, 61207 and 70317, U.A.R., Villemoisson-sur-Orge, France), distributed about 2 hours after treatment with Tetrac. No contaminants were known to have been present in the diet, drinking water or bedding material at levels which may be expected to have interfered with or prejudiced the outcome of the study.
# Weeks 1 to 3 and weeks 7 to 9: the animals received the test substance TETRAC provided either by Rhone-Poulenc or by Henning Laboratories over a three-week period.
# Weeks 4 to 6 and weeks 10 to 12: a washout period of three weeks was observed.
# Administration of Tetrac. Tetrac was administered via intramuscular injection into the thigh muscle once a day, at approximately the same time each day, several days a week over a three week period. The quantity of tetrac administered to each animal was adjusted according to the most recently recorded body weight. A constant dosage-volume of 0.5 ml/kg was used.
# Morbidity and mortality. The animals were checked at least twice a day, for mortality and signs of morbidity.
# Body weight. Body weight was recorded for each animal once before the beginning of the treatment period, on the first day of the treatment period, and at least once a week until the end of the study.
# Food consumption. Food consumption was estimated for each animal by calculating the difference between the quantity given and that remaining the next morning. This was estimated daily during the week before treatment and throughout the study. Food consumption was expressed as a percentage of the quantity given. Whenever fasting was required, the food was removed at the end of the day and the estimation of consumption was made at that time, food being made available for approximately five hours on that day.
# [5] = infused rats, adjusted group mean at the mean Ln (TSH) concentration
structure (smiles),measurement,setting,value
"O=C(O)Cc1cc(I)c(Oc2cc(I)c(O)c(I)c2)c(I)c1 [Tetrac, 3,3′,5,5′-tetraiodothyroacetic acid]",Inhibition of the mRNA levels of monodeiodinase type 2 (in words),[1],clearly less efficient
same,"GH mRNA, Tetrac/T4 (activity of Tetrac in % of T4)",[2],71%
same,"GH mRNA, adjusted mean",[2]; [5],20280 arbitrary units
same,"Residual Monodeiodinase type 1 mRNA, Tetrac/T4 (activity of Tetrac in % of T4)",[3]; at equal serum TSH concentration,49%
same,"Residual Monodeiodinase type 1 mRNA, adjusted mean",[3]; [5],2.48 arbitrary units
same,Clinical signs,"[4]; 75 μg/kg/day intramuscular, treatment or washout periods",No clinical signs were observed
same,Body weight gain (in words),"[4]; Female, two treatment periods compared to washout periods",slightly higher body weight gain
same,Food consumption (in words),[4]; Male,unaffected
